Non-standard residues stand in square brackets, D forms with d. Residues, ends and D or L forms follow the SMILES beside them. NMeThr(4R-Me,4-(CH2)6NHAc) = CN[C@H](C(=O)O)[C@H](O)[C@H](C)CCCCCCNC(C)=O; NMeL = CN[C@@H](CC(C)C)C(=O)O; NMeV = CN[C@H](C(=O)O)C(C)C; dNMeA = CN[C@H](C)C(=O)O; Abu = CC[C@H](N)C(=O)O
Columns and labels:
HIV-1 NL4.3 = assay: HIV-1 nuclear import analysis, integrase Western blot of cytoplasmic and nuclear extracts; type: cell-based; settings: 2 μM; 6 h post-infection; nuclear extract
Experimental: CD4+ HeLa cells (10^7 cells) were infected with NL4.3 (1 μg of p24) derived from 293T-transfected cells in the presence or absence of CPI-431-32 (2 μM). Six hours post-infection, cells were fractionated using the Thermo Scientific NE-PER nuclear and cytoplasmic extraction kit (Life Technologies). Cytoplasmic and nuclear extracts were analyzed by Western blotting using anti-HIV-1 integrase (Abcam), anti-CypA (Abcam) and anti-histone H2 (Abcam) antibodies.
Fig 4 CPI-431-32 blocks HIV-1 reverse transcription and nuclear import. TZM cells were infected with DNase-treated NL4-3 HIV-1 together with DMSO or CPI-431-32 (2 μM). Target cell DNA was isolated at the indicated times and was used to detect early (A) and late HIV-1 reverse transcripts (B). TZM cells were infected with NL4.3 in the presence or absence of CPI-431-32 (2 μM). Six hours post-infection, cells were fractionated and cytoplasmic and nuclear extracts analyzed by Western blotting (C). […]
To further elucidate the effects of CypA-capsid disruption, we analyzed how CPI-431-32 affects the distribution of incoming HIV-1 cores within the first 6 hours of infection as determined by the presence of the HIV-1 integrase protein. TZM cells were infected with HIV-1 NL4.3 for 6 h in the absence or presence of CPI-431-32, then fractionated into cytosolic and nuclear extracts for quantitation of HIV-1 integrase by Western blotting. […]

[1] = tested on: HCV-mediated double-membrane vesicle (DMV) formation; assay: HCV NS3-NS5B-mediated double membrane vesicle (DMV) formation in T7/Huh7.5.1 cells, EM; type: cell-based, human; settings: for DMV number: T7/Huh7.5.1 cells, pTMI (NS3-NS5B), DMSO control 365 +/- 18
Experimental: HCV-mediated DMV formation studies were conducted as we described recently using the pTM1(NS3-NS5B) plasmid and the T7/Huh7.5.1 cells developed by the Tai lab.
We then investigated the mechanism by which CPI-431-32 inhibits HCV replication. HCV is well known for its ability to reshape intracellular membranes to optimize RNA synthesis, especially by re-organizing the ER membrane close to the nucleus—the so-called membranous web (MW). […] We and others recently obtained evidence that the formation of DMVs highly depends on both CypA and HCV NS5A [60, 71, 72]. We thus asked whether CPI-431-32 inhibits HCV replication by preventing the creation of DMVs. To test this hypothesis, we took advantage of a T7 promoter driven JFH-1 NS3-NS5B DNA plasmid (pTM1(NS3-5B)) developed by the Tai lab that permits expression of NS3, NS4A, NS4B, NS5A and NS5B upon HCV polyprotein processing as well as viral RNA synthesis when transfected in T7 RNA polymerase expressing Huh7.5.1 cells (T7/Huh7.5.1 cells). Importantly, the expression of the HCV NS3-NS5B polyprotein suffices to create both the MV and DMVs independently of viral replication. All controls were presented previously. As we and others recently reported, NS3-5B expression mediates the formation of a significant number of DMVs in DMSO-treated cells (Fig 5).
Fig 5 CPI-431-32 blocks HCV-mediated double-membrane vesicle (DMV) formation. T7 polymerase expressing Huh7.5.1 cells were transfected in triplicates with JFH-1 NS3-NS5B plasmid in the presence of DMSO or increasing concentrations of CPI-431-32 and analyzed by EM as well as by Image J and ITEM software for DMVs quantification as described previously. Illustrating EM images of DMVs are presented with an amplification of 25,000x. Data are representative of two independent experiments. TEXT PRINTED IN THE PICTURE: DMSO: DMV number: 0 (Cells: T7/Huh7.5.1; HCV Plasmids: –); DMV number: 365 +/- 18 (Cells: T7/Huh7.5.1; HCV Plasmids: pTMI (NS3-NS5B)) | CPI-431-32: DMV number: 1 +/- 0 (2 μM; Cells: T7/Huh7.5.1; HCV Plasmids: pTMI (NS3-NS5B)); DMV number: 8 +/- 2 (0.5 μM; Cells: T7/Huh7.5.1; HCV Plasmids: pTMI (NS3-NS5B)); DMV number: 61 +/- 6 (0.125 μM; Cells: T7/Huh7.5.1; HCV Plasmids: pTMI (NS3-NS5B)); DMV number: 312 +/- 45 (0.03125 μM; Cells: T7/Huh7.5.1; HCV Plasmids: pTMI (NS3-NS5B))

human T cells = settings: cited from earlier work

Compound | Nuclear accumulation of HIV-1 integrase (in words) (HIV-1 NL4.3) | DMV number ([1]; 0.03125 μM) | DMV number ([1]; 0.125 μM) | DMV number ([1]; 0.5 μM) | DMV number ([1]; 2 μM) | NS3-NS5B-mediated formation of DMVs (in words) ([1]; compared to DMSO control) | Cellular toxicity (in words) (human T cells)
CC[C@@H]1NC(=O)[C@H]([C@H](O)[C@H](C)CCCCCCNC(C)=O)N(C)C(=O)[C@H](C(C)C)N(C)C(=O)[C@H](CC(C)C)N(C)C(=O)[C@H](CC(C)C)N(C)C(=O)[C@@H](C)NC(=O)[C@H](C)NC(=O)[C@H](CC(C)C)N(C)C(=O)[C@H](C(C)C)NC(=O)[C@H](CC(C)C)N(C)C(=O)[C@@H](C)N(C)C1=O [CPI-431-32] (cyclo(A[dA][NMeL][NMeL][NMeV][NMeThr(4R-Me,4-(CH2)6NHAc)][Abu][dNMeA][NMeL]V[NMeL])) | completely prevented the nuclear accumulation of integrase | 312 +/- 45 | 61 +/- 6 | 8 +/- 2 | 1 +/- 0 | profoundly decreased | –
C/C=C/C[C@@H](C)[C@@H](O)[C@H]1C(=O)N[C@@H](CC)C(=O)N(C)[C@H](C)C(=O)N(CC)[C@@H](C(C)C)C(=O)N[C@@H](C(C)C)C(=O)N(C)[C@@H](CC(C)C)C(=O)N[C@@H](C)C(=O)N[C@H](C)C(=O)N(C)[C@@H](CC(C)C)C(=O)N(C)[C@@H](CC(C)C)C(=O)N(C)[C@@H](C(C)C)C(=O)N1C [ALV, Alisporivir] | – | – | – | – | – | – | lack of cellular toxicity
